From ChEMBL document CHEMBL1201862, “PubChem BioAssay data set” (2004)
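A five-concentration, 48-hour dose response in 96-well plates underlies each endpoint, interpolated linearly between surrounding concentrations. GI50: concentration for 50% inhibition of growth.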 Calls of active or inactive are those of the source. No stated cut-off is given here; in the data, active = GI50 up to about 1.1 µM and inactive = higher.

Experiments:
Assay in all cases: inhibition of tumour cell growth, NCI panel, 48 h
ACHN = test system: ACHN
SR = test system: SR
786-0 = test system: 786-0
HT-29 = test system: HT-29
NCI-H23 = test system: NCI-H23
MOLT-4 = test system: MOLT-4
SNB-19 = test system: SNB-19
SK-MEL-28 = test system: SK-MEL-28
SF-295 = test system: SF-295
MCF7 = test system: MCF7
SK-MEL-5 = test system: SK-MEL-5
KM12 = test system: KM12
RPMI-8226 = test system: RPMI-8226
SF-539 = test system: SF-539
NCI-H226 = test system: NCI-H226
UO-31 = test system: UO-31
T47D = test system: T47D
LOX IMVI = test system: LOX IMVI
CAKI-1 = test system: CAKI-1
HCC 2998 = test system: HCC 2998
OVCAR-8 = test system: OVCAR-8
SNB-75 = test system: SNB-75
Hs-578T = test system: Hs-578T
K562 = test system: K562
DU-145 = test system: DU-145
MDA-N = test system: MDA-N
SW-620 = test system: SW-620
Malme-3M = test system: Malme-3M
HOP-62 = test system: HOP-62
OVCAR-4 = test system: OVCAR-4
A498 = test system: A498
UACC-257 = test system: UACC-257
NCI-H522 = test system: NCI-H522
OVCAR-3 = test system: OVCAR-3
NCI-H460 = test system: NCI-H460
SK-MEL-2 = test system: SK-MEL-2
MDA-MB-231 = test system: MDA-MB-231
HCT-116 = test system: HCT-116
M14 = test system: M14
HCT-15 = test system: HCT-15
PC-3 = test system: PC-3
TK-10 = test system: TK-10
COLO 205 = test system: COLO 205
HOP-92 = test system: HOP-92
IGROV-1 = test system: IGROV-1
SF-268 = test system: SF-268
SK-OV-3 = test system: SK-OV-3
MDA-MB-435 = test system: MDA-MB-435
RXF 393 = test system: RXF 393
SN12C = test system: SN12C
UACC-62 = test system: UACC-62
OVCAR-5 = test system: OVCAR-5
U-251 = test system: U-251
BT-549 = test system: BT-549
A549 = test system: A549
CCRF-CEM = test system: CCRF-CEM
EKVX = test system: EKVX
NCI/ADR-RES = test system: NCI/ADR-RES
HL-60 = test system: HL-60

C=CC1(C)CCC2C(=CCC3C(C)(COC4OC(C(=O)O)C(O)C(O)C4O)C(O)CCC23C)C1.C=CC1(C)CCC2C(=CCC3C2(C)CC(O)C(O)C3(C)COC2OC(C(=O)O)C(O)C(O)C2O)C1 (stereo not drawn)
GI50 (ACHN): > 100 µM (inactive) | GI50 (SR): 44.6 µM (inactive) | GI50 (786-0): > 100 µM (inactive) | GI50 (HT-29): > 100 µM (inactive) | GI50 (NCI-H23): > 100 µM (inactive) | GI50 (MOLT-4): 13.3 µM (inactive) | GI50 (SNB-19): > 100 µM (inactive) | GI50 (SK-MEL-28): > 100 µM (inactive) | GI50 (SF-295): 70.1 µM (inactive) | GI50 (MCF7): 71 µM (inactive) | GI50 (SK-MEL-5): > 100 µM (inactive) | GI50 (KM12): > 100 µM (inactive) | GI50 (RPMI-8226): > 100 µM (inactive) | GI50 (SF-539): > 100 µM (inactive) | GI50 (NCI-H226): > 100 µM (inactive) | GI50 (UO-31): > 100 µM (inactive) | GI50 (T47D): > 100 µM (inactive) | GI50 (LOX IMVI): > 100 µM (inactive) | GI50 (CAKI-1): > 100 µM (inactive) | GI50 (HCC 2998): > 100 µM (inactive) | GI50 (OVCAR-8): > 100 µM (inactive) | GI50 (SNB-75): > 100 µM (inactive) | GI50 (Hs-578T): > 100 µM (inactive) | GI50 (K562): 54.5 µM (inactive) | GI50 (DU-145): > 100 µM (inactive) | GI50 (MDA-N): > 100 µM (inactive) | GI50 (SW-620): > 100 µM (inactive) | GI50 (Malme-3M): > 100 µM (inactive) | GI50 (HOP-62): > 100 µM (inactive) | GI50 (OVCAR-4): > 100 µM (inactive) | GI50 (A498): > 100 µM (inactive) | GI50 (UACC-257): 83.4 µM (inactive) | GI50 (NCI-H522): > 100 µM (inactive) | GI50 (OVCAR-3): > 100 µM (inactive) | GI50 (NCI-H460): > 100 µM (inactive) | GI50 (SK-MEL-2): > 100 µM (inactive) | GI50 (MDA-MB-231): > 100 µM (inactive) | GI50 (HCT-116): > 100 µM (inactive) | GI50 (M14): > 100 µM (inactive) | GI50 (HCT-15): > 100 µM | GI50 (PC-3): 80.4 µM (inactive) | GI50 (TK-10): 46.1 µM (inactive) | GI50 (COLO 205): > 100 µM (inactive) | GI50 (HOP-92): > 100 µM (inactive) | GI50 (IGROV-1): > 100 µM (inactive) | GI50 (SF-268): > 100 µM (inactive) | GI50 (SK-OV-3): > 100 µM (inactive) | GI50 (MDA-MB-435): > 100 µM (inactive) | GI50 (RXF 393): > 100 µM (inactive) | GI50 (SN12C): > 100 µM (inactive) | GI50 (UACC-62): > 100 µM (inactive) | GI50 (OVCAR-5): > 100 µM (inactive) | GI50 (U-251): > 100 µM (inactive) | GI50 (BT-549): > 100 µM (inactive) | GI50 (A549): > 100 µM (inactive) | GI50 (CCRF-CEM): 19.4 µM (inactive) | GI50 (EKVX): > 100 µM (inactive)

O=C(O)Cc1ccc(Nc2nc3cc(C(F)(F)F)ccc3nc2C(=O)O)cc1
GI50 (ACHN): > 100 µM (inactive) | GI50 (SR): < 0.01 µM (active) | GI50 (786-0): > 100 µM (inactive) | GI50 (HT-29): > 100 µM (inactive) | GI50 (NCI-H23): > 100 µM (inactive) | GI50 (MOLT-4): > 100 µM (inactive) | GI50 (SNB-19): > 100 µM (inactive) | GI50 (SK-MEL-28): > 100 µM (inactive) | GI50 (SF-295): > 100 µM (inactive) | GI50 (MCF7): > 100 µM (inactive) | GI50 (SK-MEL-5): > 100 µM (inactive) | GI50 (KM12): > 100 µM (inactive) | GI50 (SF-539): > 100 µM (inactive) | GI50 (NCI-H226): > 100 µM (inactive) | GI50 (UO-31): > 100 µM (inactive) | GI50 (T47D): > 100 µM (inactive) | GI50 (LOX IMVI): > 100 µM (inactive) | GI50 (CAKI-1): > 100 µM (inactive) | GI50 (OVCAR-8): > 100 µM (inactive) | GI50 (SNB-75): > 100 µM (inactive) | GI50 (Hs-578T): > 100 µM (inactive) | GI50 (DU-145): > 100 µM (inactive) | GI50 (MDA-N): > 100 µM (inactive) | GI50 (SW-620): > 100 µM (inactive) | GI50 (Malme-3M): > 100 µM (inactive) | GI50 (HOP-62): > 100 µM (inactive) | GI50 (OVCAR-4): > 100 µM (inactive) | GI50 (A498): > 100 µM (inactive) | GI50 (UACC-257): > 100 µM (inactive) | GI50 (NCI-H522): > 100 µM (inactive) | GI50 (NCI/ADR-RES): > 100 µM (inactive) | GI50 (OVCAR-3): > 100 µM (inactive) | GI50 (NCI-H460): > 100 µM (inactive) | GI50 (SK-MEL-2): > 100 µM (inactive) | GI50 (HL-60): > 100 µM (inactive) | GI50 (HCT-116): > 100 µM (inactive) | GI50 (M14): > 100 µM (inactive) | GI50 (HCT-15): > 100 µM | GI50 (PC-3): > 100 µM (inactive) | GI50 (TK-10): > 100 µM (inactive) | GI50 (COLO 205): > 100 µM (inactive) | GI50 (HOP-92): > 100 µM (inactive) | GI50 (IGROV-1): > 100 µM (inactive) | GI50 (SF-268): > 100 µM (inactive) | GI50 (SK-OV-3): > 100 µM (inactive) | GI50 (MDA-MB-435): > 100 µM (inactive) | GI50 (RXF 393): > 100 µM (inactive) | GI50 (SN12C): > 100 µM (inactive) | GI50 (UACC-62): > 100 µM (inactive) | GI50 (OVCAR-5): > 100 µM (inactive) | GI50 (U-251): > 100 µM (inactive) | GI50 (BT-549): > 100 µM (inactive) | GI50 (A549): > 100 µM (inactive) | GI50 (EKVX): > 100 µM (inactive)

CC(=O)CSCc1ccccn1
GI50 (ACHN): 61.5 µM (inactive) | GI50 (SR): 21.5 µM (inactive) | GI50 (786-0): 97.1 µM (inactive) | GI50 (HT-29): 51.3 µM (inactive) | GI50 (NCI-H23): 62.2 µM (inactive) | GI50 (MOLT-4): 20.7 µM (inactive) | GI50 (SNB-19): 50.9 µM (inactive) | GI50 (SK-MEL-28): 40.2 µM (inactive) | GI50 (SF-295): 80.9 µM (inactive) | GI50 (SK-MEL-5): 26 µM (inactive) | GI50 (KM12): 36.8 µM (inactive) | GI50 (RPMI-8226): 12.7 µM (inactive) | GI50 (SF-539): 27 µM (inactive) | GI50 (NCI-H226): 19.9 µM (inactive) | GI50 (UO-31): > 100 µM (inactive) | GI50 (T47D): 34.8 µM (inactive) | GI50 (LOX IMVI): 41.5 µM (inactive) | GI50 (HCC 2998): 39.9 µM (inactive) | GI50 (OVCAR-8): 38.4 µM (inactive) | GI50 (SNB-75): 29.4 µM (inactive) | GI50 (Hs-578T): 2.69 µM (inactive) | GI50 (K562): 23.6 µM (inactive) | GI50 (DU-145): 65.2 µM (inactive) | GI50 (MDA-N): 37.8 µM (inactive) | GI50 (SW-620): 45.8 µM (inactive) | GI50 (Malme-3M): 4.72 µM (inactive) | GI50 (HOP-62): 42.4 µM (inactive) | GI50 (OVCAR-4): 83.8 µM (inactive) | GI50 (A498): 51.1 µM (inactive) | GI50 (UACC-257): 41.1 µM (inactive) | GI50 (NCI-H522): 6.9 µM (inactive) | GI50 (NCI/ADR-RES): > 100 µM (inactive) | GI50 (OVCAR-3): 30.3 µM (inactive) | GI50 (NCI-H460): 30.6 µM (inactive) | GI50 (SK-MEL-2): 25.9 µM (inactive) | GI50 (MDA-MB-231): 75.9 µM (inactive) | GI50 (HL-60): 29.1 µM (inactive) | GI50 (HCT-116): 45.3 µM (inactive) | GI50 (M14): 60.5 µM (inactive) | GI50 (HCT-15): 86.5 µM | GI50 (PC-3): 33.7 µM (inactive) | GI50 (TK-10): > 100 µM (inactive) | GI50 (COLO 205): > 100 µM (inactive) | GI50 (HOP-92): 38.6 µM (inactive) | GI50 (IGROV-1): 37.8 µM (inactive) | GI50 (SF-268): 8.87 µM (inactive) | GI50 (SK-OV-3): > 100 µM (inactive) | GI50 (MDA-MB-435): 33.4 µM (inactive) | GI50 (RXF 393): > 100 µM (inactive) | GI50 (SN12C): 75.5 µM (inactive) | GI50 (UACC-62): 31.3 µM (inactive) | GI50 (OVCAR-5): > 100 µM (inactive) | GI50 (U-251): 32.2 µM (inactive) | GI50 (BT-549): 47.5 µM (inactive) | GI50 (A549): 62.5 µM (inactive) | GI50 (CCRF-CEM): 39.9 µM (inactive) | GI50 (EKVX): 77.1 µM (inactive)
